The values that follow come from PMC3577862, “A Multiple Reaction Monitoring (MRM) Method to Detect Bcr-Abl Kinase Activity in CML Using a Peptide Biosensor” (PLoS ONE, 2013).

Series [1] concerns chronic myelogenous leukemia (CML) patients. The settings on record: CML patients on imatinib; cited from earlier work. An excerpt: [1] […] Approximately 90% of CML patients achieve initial remission with ...
Series [2] has as its target T1, Bcr-Abl (Homo sapiens, UniProt P00519+P11274). The series can be described thus: Cell-based biosensor assay, MRM (LC-MS/MS) detection of biosensor phosphorylation. The conditions noted are these: for phosphorylated peptide detected by MRM (in words): biosensor 5 min, alone or with imatinib or pervanadate; for phosphorylated peptide detected by MRM (in words) / phosphopeptide, 580-480 transition / unphosphorylated peptide, 540-604 transition / phosphopeptide, 580-604 transition / unphosphorylated peptide, 540-767 transition: 1 µg lysate; for phosphopeptide, 580-480 transition / unphosphorylated peptide, 540-604 transition / phosphopeptide, 580-604 transition / unphosphorylated peptide, 540-767 transition / %phospho: K562, 5 min; for phosphopeptide, 580-604 transition / unphosphorylated peptide, 540-767 transition: transition not chosen for quantitation; for %phospho: from fmol of 580-480 and 540-604.

The target in series [3] is T1, Bcr-Abl. The series can be described thus: Cell-based biosensor assay, Western blot detection (4G10 antiphosphotyrosine / streptavidin). The arrangement: applied here to the disease-relevant, patient-derived CML model cell line K562; BCR N-terminal portion (fusion partner, human BCR P11274); endogenous in cells; host or cells: K562 (human CML cell line). The conditions noted are these: 25 µM peptide alone, + 10 µM imatinib (1 h pre-incubation) or + 1 µM pervanadate; 5, 30, 60 min; N = 3. The procedure:
Samples of equal protein content (100 µg/lane) were diluted into Laemmli buffer and subjected to SDS-PAGE. Proteins were transferred to nitrocellulose membrane and analyzed by Western blotting. Membranes were split at the 15 kD mark and blocked in 3% milk in TBS-T overnight at 4°C, followed by blotting with the indicated antibodies in 3% milk/TBS-T. The bottom membrane was blotted with: DyLight-649 labeled Streptavidin (1∶1000, ThermoFisher Pierce) to detect total biosensor; 4G10 α-phosphotyrosine antibody to detect the phosphorylated biosensor. […] Signals of immunoblots were visualized using the Odyssey system (LiCOR Biosciences, Lincoln, NE), quantified using densitometry with Quantity One (Bio-Rad), and analyzed with GraphPad Prism software.
We based the peptide biosensor assay for Bcr-Abl/Abl kinase activity on our previously reported methodology, [17], [18] applied here to the disease-relevant, patient-derived CML model cell line K562. […] Lysates were processed as described in the Experimental Procedures, separated by SDS-PAGE and analyzed by Western blot using a two-color LiCOR scanner for quantitative detection of IR-dye labeled secondary antibodies and streptavidin (to measure total peptide signal via the biotinylated residue).

[4] abbreviates: biological replicate 1, P, P+G, P+V treatments.
Setting [5] is: biological replicate 2, P, P+G, P+V treatments.
Where [6] appears, read: biological replicate 3, P, P+G, P+V treatments.

T1 sequence (P11274+P00519 fused): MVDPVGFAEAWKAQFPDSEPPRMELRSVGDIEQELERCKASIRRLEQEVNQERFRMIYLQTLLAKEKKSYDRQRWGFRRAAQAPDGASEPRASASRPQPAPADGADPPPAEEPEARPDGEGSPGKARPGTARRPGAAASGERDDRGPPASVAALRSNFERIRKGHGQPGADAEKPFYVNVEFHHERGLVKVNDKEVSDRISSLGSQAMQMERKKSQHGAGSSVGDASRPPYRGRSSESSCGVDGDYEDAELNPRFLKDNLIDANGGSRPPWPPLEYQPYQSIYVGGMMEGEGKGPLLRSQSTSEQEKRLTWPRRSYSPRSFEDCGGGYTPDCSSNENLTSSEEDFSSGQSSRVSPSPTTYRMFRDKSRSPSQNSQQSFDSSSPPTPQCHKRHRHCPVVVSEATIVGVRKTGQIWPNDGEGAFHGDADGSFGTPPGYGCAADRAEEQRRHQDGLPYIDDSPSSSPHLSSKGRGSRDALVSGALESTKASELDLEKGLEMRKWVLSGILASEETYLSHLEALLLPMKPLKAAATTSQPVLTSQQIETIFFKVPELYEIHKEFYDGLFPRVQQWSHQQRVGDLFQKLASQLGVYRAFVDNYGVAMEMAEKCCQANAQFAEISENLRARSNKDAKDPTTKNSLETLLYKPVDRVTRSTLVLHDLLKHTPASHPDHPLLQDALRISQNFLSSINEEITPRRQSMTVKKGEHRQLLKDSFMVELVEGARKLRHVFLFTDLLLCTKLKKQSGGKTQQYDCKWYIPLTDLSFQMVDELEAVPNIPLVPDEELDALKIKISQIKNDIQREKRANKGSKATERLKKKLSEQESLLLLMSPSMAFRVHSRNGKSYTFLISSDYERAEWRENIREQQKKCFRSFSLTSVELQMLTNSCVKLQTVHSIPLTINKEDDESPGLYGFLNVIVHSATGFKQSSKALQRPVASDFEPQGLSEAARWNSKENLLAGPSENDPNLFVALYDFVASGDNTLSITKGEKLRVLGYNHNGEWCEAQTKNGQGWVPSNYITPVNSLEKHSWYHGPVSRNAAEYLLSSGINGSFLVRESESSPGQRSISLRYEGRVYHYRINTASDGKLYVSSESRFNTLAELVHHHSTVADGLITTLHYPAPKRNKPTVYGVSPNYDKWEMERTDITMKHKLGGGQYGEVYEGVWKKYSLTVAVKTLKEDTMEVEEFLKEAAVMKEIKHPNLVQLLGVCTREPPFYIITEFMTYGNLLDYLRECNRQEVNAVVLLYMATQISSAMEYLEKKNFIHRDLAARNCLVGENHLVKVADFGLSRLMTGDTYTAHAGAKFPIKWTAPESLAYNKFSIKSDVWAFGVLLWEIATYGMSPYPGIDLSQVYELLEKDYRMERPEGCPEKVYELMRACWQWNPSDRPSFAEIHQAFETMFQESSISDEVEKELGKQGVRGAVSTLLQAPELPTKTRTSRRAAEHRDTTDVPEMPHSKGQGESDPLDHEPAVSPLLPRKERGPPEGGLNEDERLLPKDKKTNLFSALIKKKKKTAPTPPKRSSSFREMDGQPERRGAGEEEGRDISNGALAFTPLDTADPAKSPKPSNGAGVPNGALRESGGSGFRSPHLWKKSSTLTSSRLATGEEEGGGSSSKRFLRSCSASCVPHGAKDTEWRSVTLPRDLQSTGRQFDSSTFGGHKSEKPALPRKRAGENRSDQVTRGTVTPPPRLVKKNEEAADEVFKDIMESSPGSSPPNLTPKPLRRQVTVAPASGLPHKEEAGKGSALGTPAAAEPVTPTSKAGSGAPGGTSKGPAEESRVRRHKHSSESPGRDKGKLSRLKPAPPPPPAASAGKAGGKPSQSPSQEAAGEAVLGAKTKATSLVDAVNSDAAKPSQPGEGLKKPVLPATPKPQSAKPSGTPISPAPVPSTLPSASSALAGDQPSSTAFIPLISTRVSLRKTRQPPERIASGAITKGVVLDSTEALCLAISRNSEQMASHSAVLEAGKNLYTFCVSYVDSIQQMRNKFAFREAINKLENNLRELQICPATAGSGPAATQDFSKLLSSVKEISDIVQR
Method for K562 cells: Biosensor peptide from samples generated as described above (in the Cell-based biosensor assay section) was captured using streptavidin-coated MagneSpheres (Promega Corporation, Madison, WI). The beads (20 µl) were prepared by washing with 0.1% Octyl-β-glucoside/PBS (3×150 µl). K562 cell lysates (200 µg total protein) were incubated with the beads on a shaker (600 rpm, 60 min). Beads were captured using a MagnaBot 96-well magnetic capture device (Promega) and washed with 0.1% Octyl-β-glucoside/PBS (3×150 µl) and deionized water (3×150 µl). Peptide was eluted using 15 µL sample buffer (ACN/H2O/TFA, 50%/50%/0.1%). 0.5 µL from each sample was co-spotted with α-cyano-4-hydroxycinnamic acid (10% w/v) containing ammonium dihydrogen phosphate (5 mg/ml), [22] dried and analyzed on a 4800 MALDI-TOF/TOF Analyzer (ABSciex). Selected ions were analyzed by MS/MS (specifying the parent ion mass for selection and CID) and sequenced de novo.
Peptide in lysates was enriched using streptavidin-coated magnetic nanoparticles through the peptide’s biotinylated reporter segment.

As for `Cc1ccc(NC(=O)c2ccc(CN3CCN(C)CC3)cc2)cc1Nc1nccc(-c2cccnc2)n1` [imatinib], in series [1], the “CML patients achieving initial remission with imatinib” value is recorded as “Approximately 90%”, the “patients who never respond or develop recurrent and/or resistant disease (relapse within a few years; 1–5 years of starting treatment)” value is given as “approximately 30%” and the “patients whose remission remains stable for a long period of time” value is about 70%.

“EAIYAAPFAKKK(γ-biotin)G-βNpa-GCGGAPTYSPPPPPGGRKKRRQRRRLL [Peptide]”: in the series with K562 cells, the “site of degradation of the biosensor in cells” value was “C-terminal degradation”. Further, the “Total (fmol), Peptide only” value on Bcr-Abl [2] (K562 cells, 25 µM peptide alone, 5 min, unphosphorylated plus phosphorylated, per µg of digested lysate, MRM, mean ±SD of three replicate biological experiments) was 28 ± 5 fmol. Besides, the “phosphorylated peptide detected by MRM (in words)” value at Bcr-Abl [2] (K562 cells) is “both unphosphorylated and phosphorylated peptides were detected”. In addition, the “phosphorylation of the biosensor peptide in K562 cells (Western blot, 4G10)” value on Bcr-Abl [3] was “phosphorylated”.

For pervanadate, on Bcr-Abl [2] (K562 cells, 25 µM peptide + 1 µM pervanadate, 5 min, 540→604, per µg of digested lysate, mean ±SD of three replicates), the “Unphospho (fmol), Peptide+pervanadate” value turned out to be 14 ± 0.6 fmol. For the same compound, the “Phospho (fmol), Peptide+pervanadate” value on Bcr-Abl [2] (K562 cells, 25 µM peptide + 1 µM pervanadate, 5 min, 580→480, per µg of digested lysate, mean ±SD of three replicates) was determined as 17 ± 12 fmol. On Bcr-Abl [2] (K562 cells, 25 µM peptide + 1 µM pervanadate, 5 min, MRM, mean ±SD of three replicates), the “% phospho, Peptide+pervanadate” value stood at 52±16%. For the same compound, on Bcr-Abl [2] (K562 cells, 25 µM peptide + 1 µM pervanadate, 5 min, unphosphorylated plus phosphorylated, per µg of digested lysate, mean ±SD of three replicates), the “Total (fmol), Peptide+pervanadate” value amounted to 31 ± 13 fmol. For the same compound, the “phosphorylated peptide detected by MRM (in words)” value on Bcr-Abl [2] (K562 cells) is on record as “higher levels”. The “phosphopeptide, 580-480 transition” value at Bcr-Abl [2] (biological replicate 1, P = peptide alone, P+G = + imatinib, P+V = + pervanadate, corrected AUC x 1/slope) came to 31.582 fmol. For the same compound, on Bcr-Abl [2] (setting [4]), the “unphosphorylated peptide, 540-604 transition” value came out at 14.1586 fmol; the “phosphopeptide, 580-604 transition” value was found to be 42.5934 fmol; the “unphosphorylated peptide, 540-767 transition” value was found to be 15.6618 fmol; the “%phospho” value turned out to be 69.0458%. Further, at Bcr-Abl [2] (setting [5]), the “phosphopeptide, 580-480 transition” value was 10.229 fmol; the “unphosphorylated peptide, 540-604 transition” value amounted to 12.9195 fmol; the “phosphopeptide, 580-604 transition” value worked out at 16.5395 fmol; the “unphosphorylated peptide, 540-767 transition” value was 12.6668 fmol. Also, on Bcr-Abl [2] (setting [5]), the “%phospho” value was 44.1886%. For the same compound, on Bcr-Abl [2] (setting [6]), the “phosphopeptide, 580-480 transition” value amounted to 10.3517 fmol; the “unphosphorylated peptide, 540-604 transition” value was 13.5084 fmol; the “phosphopeptide, 580-604 transition” value is reported as 16.6663 fmol; the “unphosphorylated peptide, 540-767 transition” value was determined as 11.085 fmol. The “%phospho” value on Bcr-Abl [2] (setting [6]) was 43.385%. For the same compound, the “phosphorylation of the biosensor peptide in K562 cells (Western blot, 4G10)” value on Bcr-Abl [3] was “stabilized”.
